The text below walks through data of patent publication US20250296971A1, “GASTRIC INHIBITORY PEPTIDE RECEPTOR LIGANDS” (priority 2021, published 2025).

*1 amine or outer side, *2 acyl side, *3 side chain or, on linkers, in order; H or OH if unused. Where a SMILES comes first, the peptide text is derived from it. Bridges are numbered along the chain shown (N, C = ends). [ ]: non-standard residue; d: D form. Trp(5-Cl) = N[C@@H](Cc1c[nH]c2ccc(Cl)cc12)C(=O)O; Pyridine(2,6-diCH2) = c1cc(C[*:1])nc(C[*:2])c1; Trp(7-F) = N[C@@H](Cc1c[nH]c2c(F)cccc12)C(=O)O; Hyp = O=C(O)[C@@H]1C[C@@H](O)CN1; Thp = NC1(C(=O)O)CCOCC1

The target of the assay is T1, GIPR (CHO-K1-hGIPR cells) (Homo sapiens, UniProt P48546).
T1 construct: host or cells: CHO-K1
T1 sequence (P48546 22-466): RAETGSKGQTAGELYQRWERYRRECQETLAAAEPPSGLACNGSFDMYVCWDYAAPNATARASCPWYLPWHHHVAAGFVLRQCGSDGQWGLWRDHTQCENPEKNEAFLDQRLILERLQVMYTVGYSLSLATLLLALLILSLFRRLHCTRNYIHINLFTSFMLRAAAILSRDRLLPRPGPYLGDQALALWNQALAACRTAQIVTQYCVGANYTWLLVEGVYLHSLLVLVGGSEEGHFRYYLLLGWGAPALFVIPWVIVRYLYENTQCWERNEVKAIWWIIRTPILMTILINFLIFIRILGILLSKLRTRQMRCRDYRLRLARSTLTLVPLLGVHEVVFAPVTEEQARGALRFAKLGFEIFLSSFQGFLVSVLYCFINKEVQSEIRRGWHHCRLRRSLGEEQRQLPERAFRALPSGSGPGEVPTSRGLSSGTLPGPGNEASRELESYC
As to the kind of experiment: FACS binding assay. Particulars: competition with 20 nM GIP-057, 4° C., 1 hour, read-out: pIC50 Category (converted). Summed up: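 Read-out: flow cytometric median fluorescence intensity, APC/Cy5 channel, plotted vs peptide conc.; 4PL fit → EC50/pEC50 or IC50/pIC50. Cells: CHO-K1-hGIPR, Accutase-detached, 500.000/mL in PBS + 1% FCS. Detection: APC-streptavidin 1 μg/mL, 30 min, on ice.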
For orientation: A flow cytometer gives signals particle by particle.
As for `CC[C@H](C)[C@@H]1NC(=O)[C@H](CC(C)C)NC(=O)C2(CCOCC2)NC(=O)[C@@H](NC(=O)[C@@H](CC(C)C)NC(=O)[C@H](CCC(=O)O)NC(=O)[C@@H]2C[C@@H](O)CN2C(=O)[C@H](Cc2c[nH]c3c(F)cccc23)NC(=O)[C@H](Cc2c[nH]c3ccccc23)NC(=O)[C@H](CC(=O)O)NC(C)=O)CSCc2cccc(n2)CSC[C@@H](C(N)=O)NC1=O` [GIP-227, Ac-Asp-Trp-7Fw-Hyp-Glu-leu-[Cys(2Lut)-Thp-Leu-Ile-Cys]-NH2] (Ac-DW[Trp(7-F)][Hyp]E[dL]C[Thp]LIC-NH2; linker 7-11 via Pyridine(2,6-diCH2)), the IC50 was under 10 nM. Next, `CC[C@H](C)[C@@H]1NC(=O)[C@H](CC(C)C)NC(=O)[C@H](Cc2ccccc2)NC(=O)[C@@H](NC(=O)[C@@H](CC(C)C)NC(=O)[C@H](CCC(=O)O)NC(=O)[C@@H]2C[C@@H](O)CN2C(=O)[C@H](Cc2c[nH]c3ccc(Cl)cc23)NC(=O)[C@H](Cc2c[nH]c3ccccc23)NC(=O)[C@H](CC(=O)O)NC(C)=O)CSCc2cccc(n2)CSC[C@@H](C(N)=O)NC1=O` [GIP-228, Ac-Asp-Trp-5Clw-Hyp-Glu-leu-[Cys(2Lut)-Phe-Leu-Ile-Cys]-NH2] (Ac-DW[Trp(5-Cl)][Hyp]E[dL]CFLIC-NH2; linker 7-11 via Pyridine(2,6-diCH2)): under 10 nM.

In the case of `CC[C@H](C)[C@@H]1NC(=O)[C@H]([C@@H](C)CC)NC(=O)C2(CCOCC2)NC(=O)[C@@H](NC(=O)[C@@H](CC(C)C)NC(=O)[C@H](CCC(=O)O)NC(=O)[C@@H]2C[C@@H](O)CN2C(=O)[C@H](Cc2c[nH]c3ccc(Cl)cc23)NC(=O)[C@H](Cc2c[nH]c3ccccc23)NC(=O)[C@H](CC(=O)O)NC(C)=O)CSCc2cccc(n2)CSC[C@@H](C(N)=O)NC1=O` [GIP-229, Ac-Asp-Trp-5Clw-Hyp-Glu-leu-[Cys(2Lut)-Thp-Ile-Ile-Cys]-NH2] (Ac-DW[Trp(5-Cl)][Hyp]E[dL]C[Thp]IIC-NH2; linker 7-11 via Pyridine(2,6-diCH2)), the IC50 was under 10 nM. Next, `CC[C@H](C)[C@@H]1NC(=O)[C@H](CCCNC(=N)N)NC(=O)C2(CCOCC2)NC(=O)[C@@H](NC(=O)[C@@H](CC(C)C)NC(=O)[C@H](CCC(=O)O)NC(=O)[C@@H]2C[C@@H](O)CN2C(=O)[C@H](Cc2c[nH]c3ccc(Cl)cc23)NC(=O)[C@H](Cc2c[nH]c3ccccc23)NC(=O)[C@H](CC(=O)O)NC(C)=O)CSCc2cccc(n2)CSC[C@@H](C(N)=O)NC1=O` [GIP-230, Ac-Asp-Trp-5Clw-Hyp-Glu-leu-[Cys(2Lut)-Thp-Arg-Ile-Cys]-NH2] (Ac-DW[Trp(5-Cl)][Hyp]E[dL]C[Thp]RIC-NH2; linker 7-11 via Pyridine(2,6-diCH2)): under 10 nM; `CC[C@H](C)[C@@H]1NC(=O)[C@H](CCC(=O)O)NC(=O)C2(CCOCC2)NC(=O)[C@@H](NC(=O)[C@@H](CC(C)C)NC(=O)[C@H](CCC(=O)O)NC(=O)[C@@H]2C[C@@H](O)CN2C(=O)[C@H](Cc2c[nH]c3ccc(Cl)cc23)NC(=O)[C@H](Cc2c[nH]c3ccccc23)NC(=O)[C@H](CC(=O)O)NC(C)=O)CSCc2cccc(n2)CSC[C@@H](C(N)=O)NC1=O` [GIP-231, Ac-Asp-Trp-5Clw-Hyp-Glu-leu-[Cys(2Lut)-Thp-Glu-Ile-Cys]-NH2] (Ac-DW[Trp(5-Cl)][Hyp]E[dL]C[Thp]EIC-NH2; linker 7-11 via Pyridine(2,6-diCH2)): under 10 nM. Next, `CC[C@H](C)[C@@H]1NC(=O)[C@H](Cc2ccccc2)NC(=O)C2(CCOCC2)NC(=O)[C@@H](NC(=O)[C@@H](CC(C)C)NC(=O)[C@H](CCC(=O)O)NC(=O)[C@@H]2C[C@@H](O)CN2C(=O)[C@H](Cc2c[nH]c3ccc(Cl)cc23)NC(=O)[C@H](Cc2c[nH]c3ccccc23)NC(=O)[C@H](CC(=O)O)NC(C)=O)CSCc2cccc(n2)CSC[C@@H](C(N)=O)NC1=O` [GIP-232, Ac-Asp-Trp-5Clw-Hyp-Glu-leu-[Cys(2Lut)-Thp-Phe-Ile-Cys]-NH2] (Ac-DW[Trp(5-Cl)][Hyp]E[dL]C[Thp]FIC-NH2; linker 7-11 via Pyridine(2,6-diCH2)): under 10 nM; `CC[C@H](C)[C@@H]1NC(=O)[C@H](Cc2c[nH]c3ccccc23)NC(=O)C2(CCOCC2)NC(=O)[C@@H](NC(=O)[C@@H](CC(C)C)NC(=O)[C@H](CCC(=O)O)NC(=O)[C@@H]2C[C@@H](O)CN2C(=O)[C@H](Cc2c[nH]c3ccc(Cl)cc23)NC(=O)[C@H](Cc2c[nH]c3ccccc23)NC(=O)[C@H](CC(=O)O)NC(C)=O)CSCc2cccc(n2)CSC[C@@H](C(N)=O)NC1=O` [GIP-233, Ac-Asp-Trp-5Clw-Hyp-Glu-leu-[Cys(2Lut)-Thp-Trp-Ile-Cys]-NH2] (Ac-DW[Trp(5-Cl)][Hyp]E[dL]C[Thp]WIC-NH2; linker 7-11 via Pyridine(2,6-diCH2)): under 10 nM. Next, `CC[C@H](C)[C@@H]1NC(=O)[C@H](CC(C)C)NC(=O)[C@H](Cc2c[nH]c3ccccc23)NC(=O)[C@@H](NC(=O)[C@@H](CC(C)C)NC(=O)[C@H](CCC(=O)O)NC(=O)[C@@H]2C[C@@H](O)CN2C(=O)[C@H](Cc2c[nH]c3ccc(Cl)cc23)NC(=O)[C@H](Cc2c[nH]c3ccccc23)NC(=O)[C@H](CC(=O)O)NC(C)=O)CSCc2cccc(n2)CSC[C@@H](C(N)=O)NC1=O` [GIP-234, Ac-Asp-Trp-5Clw-Hyp-Glu-leu-[Cys(2Lut)-Trp-Leu-Ile-Cys]-NH2] (Ac-DW[Trp(5-Cl)][Hyp]E[dL]CWLIC-NH2; linker 7-11 via Pyridine(2,6-diCH2)): under 10 nM. Consider `CC[C@H](C)[C@@H]1NC(=O)[C@H](CC(C)C)NC(=O)[C@H](CCC(=O)O)NC(=O)[C@@H](NC(=O)[C@@H](CC(C)C)NC(=O)[C@H](CCC(=O)O)NC(=O)[C@@H]2C[C@@H](O)CN2C(=O)[C@H](Cc2c[nH]c3ccc(Cl)cc23)NC(=O)[C@H](Cc2c[nH]c3ccccc23)NC(=O)[C@H](CC(=O)O)NC(C)=O)CSCc2cccc(n2)CSC[C@@H](C(N)=O)NC1=O` [GIP-235, Ac-Asp-Trp-5Clw-Hyp-Glu-leu-[Cys(2Lut)-Glu-Leu-Ile-Cys]-NH2] (Ac-DW[Trp(5-Cl)][Hyp]E[dL]CELIC-NH2; linker 7-11 via Pyridine(2,6-diCH2)), for which the IC50 is under 10 nM. Next, `CC[C@H](C)[C@@H]1NC(=O)[C@H](CO)NC(=O)C2(CCOCC2)NC(=O)[C@@H](NC(=O)[C@@H](CC(C)C)NC(=O)[C@H](CCC(=O)O)NC(=O)[C@@H]2C[C@@H](O)CN2C(=O)[C@H](Cc2c[nH]c3ccc(Cl)cc23)NC(=O)[C@H](Cc2c[nH]c3ccccc23)NC(=O)[C@H](CC(=O)O)NC(C)=O)CSCc2cccc(n2)CSC[C@@H](C(N)=O)NC1=O` [GIP-236, Ac-Asp-Trp-5Clw-Hyp-Glu-leu-[Cys(2Lut)-Thp-Ser-Ile-Cys]-NH2] (Ac-DW[Trp(5-Cl)][Hyp]E[dL]C[Thp]SIC-NH2; linker 7-11 via Pyridine(2,6-diCH2)): under 10 nM. Next, `CC(=O)N[C@@H](CC(=O)O)C(=O)N[C@@H](Cc1c[nH]c2ccccc12)C(=O)N[C@@H](Cc1c[nH]c2ccc(Cl)cc12)C(=O)N1C[C@H](O)C[C@H]1C(=O)N[C@@H](CCC(=O)O)C(=O)N[C@H](CC(C)C)C(=O)N[C@H]1CSCc2cccc(n2)CSC[C@@H](C(N)=O)NC(=O)[C@H](CC(C)C)NC(=O)[C@H](CC(C)C)NC(=O)C2(CCOCC2)NC1=O` [GIP-237, Ac-Asp-Trp-5Clw-Hyp-Glu-leu-[Cys(2Lut)-Thp-Leu-Leu-Cys]-NH2] (Ac-DW[Trp(5-Cl)][Hyp]E[dL]C[Thp]LLC-NH2; linker 7-11 via Pyridine(2,6-diCH2)): under 10 nM.
